Results published in patent US20240368194A1, “IRAK4 DEGRADATION AGENT, AND PREPARATION METHOD THEREFOR AND USE THEREOF” (SHANGHAI LEADINGTAC PHARMACEUTICAL CO. LTD., priority 2021, published 2024).
pIC50: −log10 of the molar value.

Key:
[1] = system: IL-6 production in LPS-induced human PBMCs; assay: IL-6 secreted by LPS-induced human PBMCs (IL-6 AlphaLISA); type: cell-based; conditions: PBMC, compound 1 h or 20 h, then LPS 100 ng/mL 5 h, read-out: hPBMC IC50
Description: Frozen human PBMCs (Milestone, PB010C) were thawed and resuspended in RPMI 1640 medium (Gibco, A1049101) supplemented with 10%/o fetal bovine serum (Gibco, 10099141), 100 U/mL penicillin and 100 sg/mL streptomycin (Gibco, 15140122). On the same day. PBMCs were plated onto a 96-well clear cell plate (Labserv, 310109008) at 150 μL/well, with a cell density of 2×10^5 cells/well. Then 50 μL of diluted compound solution was added to corresponding wells with cells, such that the final concentration of the compound fell within the range of 0.026-10,000 nM. The final concentration of DMSO was 0.25%. […]
IL-6 standard solutions with different concentrations, ranging from […], were prepared by following the instructions for use of the product, 2 μL of each of the IL-6 standard solutions and test samples of cell supernatant were added to a white 384-well plate (PerkinElmer, 6007299), and 8 μL of a mixed solution of 5×anti-IL-6 receptor beads (final concentration of 10 μg/mL) and biotin-labeled anti-IL-6 antibody (final concentration of 1 nM) was then added to each well. […] After the incubation was complete, AlphaLISA signal values were measured on a microplate reader EnVision (PerkinElmer, 2105) in the AlphaScreen standard mode. […] The inhibition rate of the compound at each concentration was calculated by comparing the IL-6 concentration with that of the control group. […]

IRAK4 kinase = IRAK4 kinase (Homo sapiens (Human), UniProt Q9NWZ3); assay: IRAK4 kinase activity test (KinEASE-STK S1 HTRF kit); type: biochemical; conditions: 2.5 nM IRAK4 kinase, 7 μM ATP, 37° C. 120 min
Summary of the method: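 Human IRAK4 (2.5 nM) with 1 μM biotinylated peptide substrate and 7 μM ATP, incubated 120 min at 37 °C. HTRF read-out (Eu anti-phospho-Ser/Thr antibody, XL665-streptavidin; 665/620 nm ratio) after 1 h at room temperature. IC50 from inhibition relative to control by non-linear fit of log concentration.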

[2] = system: IL-6 production in LPS-induced human whole blood; assay: IL-6 secreted by LPS-induced normal human whole blood PBMCs (IL-6 AlphaLISA); type: cell-based; conditions: compound 20 h, then LPS 100 ng/mL 5 h
Description: Fresh normal human whole blood (healthy people from 22-50 years of age, freshly collected blood) anticoagulated with heparin sodium was plated onto a 96-well clear cell plate (Labserv, 310109008) at 190 μL/well, and 10 μL of diluted compound solution was then added to corresponding wells, such that the final concentration of the compound fell within the range of 10-20,000 nM. The final concentration of dimethyl sulfoxide was 0.1%. The compound-treated cell plate was sealed with a plate-sealing membrane. After the plate was incubated in a 37° C., 5% carbon dioxide incubator for 20 h, 10 μL of LPS (0111:B4) (Sigma, L4391) was added, making a final concentration of 100 ng/mL. […]
IL-6 standard solutions with different concentrations, ranging from […], were prepared by following the instructions for use of the product, 2 μL of each of the IL-6 standard solutions and test samples of cell supernatant were added to a white 384-well plate (PerkinElmer, 6007299), and 8 μL of a mixed solution of 5× anti-IL-6 receptor beads (PerminElmer, final concentration of 10 μg/mL) and biotin-labeled anti-IL-6 antibody (PerminElmer, final concentration of 1 nM) was then added to each well. […] After the incubation was complete, AlphaLISA signal values were measured on a microplate reader EnVision (PerkinElmer, 2105) in the AlphaScreen standard mode. […]

[3] = target: IRAK4 protein in THP-1 cells (Homo sapiens (Human), UniProt Q9NWZ3); assay: Degradation of IRAK4 in THP-1 cells, human IRAK4 AlphaLISA assay; type: cell-based; conditions: 24 h incubation
Summary of the method: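 THP-1 cells, after overnight plating, exposed 24 h at 37 °C to compound at 0.03-3000 nM final. Lysate IRAK4 read by Western blot and by AlphaLISA (acceptor beads 10 μg/mL, biotin anti-IRAK4 1 nM, donor beads 40 μg/mL, 23 °C). DC50 and Dmax from log concentration-response fit.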

Chain of IRAK4 protein in THP-1 cells (Q9NWZ3 whole entry): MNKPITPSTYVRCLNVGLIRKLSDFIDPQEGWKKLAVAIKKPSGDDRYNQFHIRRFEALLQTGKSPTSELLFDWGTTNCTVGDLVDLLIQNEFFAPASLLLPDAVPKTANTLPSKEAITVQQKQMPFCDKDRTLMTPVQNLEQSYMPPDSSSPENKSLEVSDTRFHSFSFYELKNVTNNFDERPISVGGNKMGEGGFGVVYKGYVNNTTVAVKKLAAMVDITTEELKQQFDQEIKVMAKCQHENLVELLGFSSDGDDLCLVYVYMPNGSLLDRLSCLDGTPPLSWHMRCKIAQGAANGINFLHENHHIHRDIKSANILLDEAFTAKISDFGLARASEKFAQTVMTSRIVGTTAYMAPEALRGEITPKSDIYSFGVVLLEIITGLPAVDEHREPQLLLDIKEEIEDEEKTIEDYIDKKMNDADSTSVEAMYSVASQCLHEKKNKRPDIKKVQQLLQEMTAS
Chain of IRAK4 kinase (Q9NWZ3 whole entry): as above

pIC50 (IRAK4 kinase) | DC50 [3] [nM] | Dmax [3] [%] | SMILES | pIC50 [1] | pIC50 [2]
7.52 | 3.7 | 90 | O=C1CCN(c2cc(C(=O)N3CCC4(CCC(CN5CCC(n6cc(NC(=O)c7cnn8ccc(N9C[C@H]%10C[C@@H]9CO%10)nc78)c(C(F)F)n6)CC5)CC4)CC3)ccc2Cl)C(=O)N1 [Example 1, 5-((1R,4R)-2-oxa-5-azabicyclo[2.2.1]heptan-5-yl)-N-(1-(1-((3-(4-chloro-3-(2,4-dioxotetrahydropyrimidin-1(2H)-yl)benzoyl)-3-azaspiro[5.5]undecan-9-yl)methyl)piperidin-4-yl)-3-(difluoromethyl)-1H-pyrazol-4-yl)pyrazolo[1,5-a]pyrimidine-3-carboxamide] | 8.51 | 6.54
7.81 | 1.8 | 95.8 | O=C1CCN(c2cc(C(=O)N3CCC4(CCN(C[C@H]5CC[C@H](n6cc(NC(=O)c7cnn8ccc(N9C[C@H]%10C[C@@H]9CO%10)nc78)c(C(F)F)n6)CC5)CC4)CC3)ccc2Cl)C(=O)N1 [Example 2, 5-((1R,4R)-2-oxa-5-azabicyclo[2.2.1]heptan-5-yl)-N-(1-((1r,4R)-4-((9-(4-chloro-3-(2,4-dioxotetrahydropyrimidin-1(2H)-yl)benzoyl)-3,9-diazaspiro[5.5]undecan-3-yl)methyl)cyclohexyl)-3-(difluoromethyl)-1H-pyrazol-4-yl)pyrazolo[1,5-a]pyrimidine-3-carboxamide] | 8.66 | 6.61
